Results published in patent US10221163B2 (priority 2015, dated 2019).
Where two headings read alike, the source gives them in different places.

Assays:
[1] = test system: Klebsiella pneumoniae expressing VIM-1 (IHMA599644); type: cell-based; settings: VIM-1 strain IHMA599644, with imipenem 1 μg/ml, 95% inhibition of growth
Outline: (§1)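 Imipenem 1 μg/ml + inhibitor; MBL-expressing clinical strains in 1.1×CAMHB, inoculum from saline suspension diluted 1:100; 35° C, 22–24 h; absorbance read-out.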

[2] = test system: Escherichia coli expressing NDM-1 (CLB30005, CLB30016); type: cell-based; settings: NDM-1 strain, with imipenem 1 μg/ml, 95% inhibition of growth
Outline: as §1

[3] = test system: Serratia marcescens expressing IMP-1 (CL5741); type: cell-based; settings: IMP-1 strain CL5741, with imipenem 1 μg/ml, 95% inhibition of growth
Outline: as §1

[4] = test system: Pseudomonas aeruginosa efflux− (MB9799), IMP-1; type: cell-based; settings: efflux− MB9799; imipenem at 2 μg/mL; in the presence of a class A, C, D serine β-lactamase inhibitor closely related to relebactam
Outline: (§2)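 Microbroth MIC tests in PAO1-background strains with fixed imipenem and/or ceftazidime, usually at the CLSI breakpoint, plus fixed class A/C β-lactamase inhibitor against AmpC. MBL inhibitor titrated; concentration restoring susceptibility recorded and compared as fold difference between efflux+ MB9798 and efflux− MB9799.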

[5] = test system: Pseudomonas aeruginosa MB9798 vs MB9799; settings: fold difference between efflux+ (MB9798) and efflux− (MB9799) strains; imipenem at 2 μg/mL
Outline: as §2

[6] = target: IMP-1 (Serratia marcescens, UniProt P52699); assay: biochemical; type: biochemical; settings: fluorescence assay, CCF2-FA substrate, 2 pM enzyme, 2 hours at 25° C.; read-out: IMP-1 IC50
Outline: (§3)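 Two-hour, 25° C incubation of enzyme with inhibitor and CCF2-FA (7-hydroxycoumarin–cephalosporin–fluorescein). Fluorescence read-out; IC50 via 4-parameter fit.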

[7] = target: NDM-1 (Klebsiella pneumoniae, UniProt C7C422); assay: biochemical; type: biochemical; settings: fluorescence assay, CCF2-FA substrate, 1 pM enzyme, 2 hours at 25° C.; read-out: NDM-1 IC50
Outline: as §3

[8] = target: VIM-1 (Pseudomonas aeruginosa (strain ATCC 15692 / DSM 22644 / CIP 104116 / JCM 14847 / LMG 12228 / 1C / PRS 101 / PAO1), UniProt A0A0F7KYQ8); assay: biochemical; settings: CCF2-FA substrate, 30 pM enzyme, 2 hours at 25° C.
Outline: as §3

[9] = test system: Pseudomonas aeruginosa efflux+ (MB9798), IMP-1; type: cell-based; parameters: Concentration of metallo-β-lactamase inhibitor which restores susceptibility of efflux + (MB9798) strain to imipenem: unit not given here; settings: efflux+ MB9798; imipenem at 2 μg/mL; in the presence of a class A, C, D serine β-lactamase inhibitor closely related to relebactam
Outline: as §2

[10] = fluorescence assay, read-out: VIM-1 IC50

Chain of IMP-1 (P52699 whole entry, looked up, species assumed): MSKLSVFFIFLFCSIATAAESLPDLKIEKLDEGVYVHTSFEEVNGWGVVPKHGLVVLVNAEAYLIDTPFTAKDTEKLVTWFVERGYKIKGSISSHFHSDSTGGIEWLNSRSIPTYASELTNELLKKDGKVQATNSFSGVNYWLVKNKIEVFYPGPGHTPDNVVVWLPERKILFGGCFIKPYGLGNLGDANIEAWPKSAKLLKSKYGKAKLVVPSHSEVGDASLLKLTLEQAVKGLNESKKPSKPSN
Chain of NDM-1 (C7C422 whole entry, looked up, species assumed): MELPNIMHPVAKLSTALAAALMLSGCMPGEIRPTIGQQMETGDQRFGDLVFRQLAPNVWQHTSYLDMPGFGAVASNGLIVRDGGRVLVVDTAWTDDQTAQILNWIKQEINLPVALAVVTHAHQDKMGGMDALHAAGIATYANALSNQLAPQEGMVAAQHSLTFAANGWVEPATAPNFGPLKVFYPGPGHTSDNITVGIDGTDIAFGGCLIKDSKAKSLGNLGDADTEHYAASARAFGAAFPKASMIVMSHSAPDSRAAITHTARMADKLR

Row | SMILES | Klebsiella pneumoniae MITC95 [1] | Escherichia coli MITC95 [2] | Serratia marcescens MITC95 [3] | Concentration of metallo-β-lactamase inhibitor which restores susceptibility of efflux − (MB9799) strain to imipenem [4] | Efflux ratio [5] | IC50 [6] | IC50 [7] | IC50 [8, 10] | Concentration of metallo-β-lactamase inhibitor which restores susceptibility of efflux + (MB9798) strain to imipenem [9] | IC50 ([8]; VIM-1 IC50, fluorescence assay)
1 | NCC(CN)NS(=O)(=O)c1ccc(-c2cccc3[nH]c(N)nc23)c(-c2nn[nH]n2)c1S(N)(=O)=O [Example 429] | 1.563 µM | 0.5208 µM | 1.563 µM | 0.7813 | 1.00 | 0.489 nM | 0.0819 nM | 0.228 nM | 0.7813 | –
2 | NCC(CN)NS(=O)(=O)c1ccc(-c2cccc3ccc(N)nc23)c(-c2nn[nH]n2)c1S(N)(=O)=O [Example 430] | 1.563 µM | 1.172 µM | 1.563 µM | 1.563 | 1.00 | 0.102 nM | 0.0325 nM | 0.103 nM | 1.563 | –
3 | NCCNCc1sc(N)nc1-c1cccc(-c2ccc(S(=O)(=O)N[C@@H]3CCNC3)c(S(N)(=O)=O)c2-c2nnn[nH]2)c1 [Example 433] | 1.563 µM | 0.7813 µM | 1.563 µM | 0.7813 | 2.00 | 1.33 nM | 0.51 nM | 0.404 nM | 1.563 | –
4 | NC[C@H](N)CNS(=O)(=O)c1ccc(-c2cccc(-c3c[nH]c(N)n3)c2)c(-c2nn[nH]n2)c1S(N)(=O)=O [Example 434] | 1.563 µM | 0.7813 µM | 1.563 µM | 0.7813 | 2.00 | 1.53 nM | 0.2 nM | 0.337 nM | 1.563 | –
5 | NCC(CN)NS(=O)(=O)c1ccc(-c2cccc(-c3c[nH]c(N)n3)c2)c(-c2nn[nH]n2)c1S(N)(=O)=O [Example 435] | 3.125 µM | 1.563 µM | 3.125 µM | 1.563 | 2.00 | 1.78 nM | 0.46 nM | 1.21 nM | 3.125 | –
6 | NCC(CN)NS(=O)(=O)c1ccc(-c2cccc3sc(N)nc23)c(-c2nn[nH]n2)c1S(N)(=O)=O [Example 436] | 1.563 µM | 0.7813 µM | 1.563 µM | 0.7813 | 1.00 | 0.103 nM | 0.0246 nM | 0.116 nM | 0.7813 | –
7 | NCC(CN)NS(=O)(=O)c1ccc(-c2ccnc(-c3cnc(N)[nH]3)c2)c(-c2nnn[nH]2)c1S(N)(=O)=O [Example 437, 4-(2-(2-Amino-1H-imidazol-5-yl)pyridin-4-yl)-N^1-(1,3-diaminopropan-2-yl)-3-(1H-tetrazol-5-yl)benzene-1,2-disulfonamide] | 3.125 µM | 0.7813 µM | 3.125 µM | 0.7813 | 2.00 | 2.41 nM | 1.18 nM | – | 1.563 | 0.952 nM
8 | NCC(CN)NS(=O)(=O)c1ccc(-c2cccc(-c3cnc(N)[nH]3)n2)c(-c2nnn[nH]2)c1S(N)(=O)=O [Example 438, 4-(6-(2-Amino-1H-imidazol-5-yl)pyridin-2-yl)-N^1-(1,3-diaminopropan-2-yl)-3-(1H-tetrazol-5-yl)benzene-1,2-disulfonamide] | 3.125 µM | 3.125 µM | 3.125 µM | 3.125 | 2.00 | 17.9 nM | 2.04 nM | – | 6.25 | 3.91 nM
9 | Nc1ncc(-c2cccc(-c3ccc(S(=O)(=O)N[C@@H]4CCNC4)c(S(N)(=O)=O)c3-c3nnn[nH]3)n2)[nH]1 [Example 439, (R)-4-(6-(2-Amino-1H-imidazol-5-yl)pyridin-2-yl)-N^1-(pyrrolidin-3-yl)-3-(1H-tetrazol-5-yl)benzene-1,2-disulfonamide] | 1.563 µM | 3.125 µM | 1.563 µM | 1.563 | 4.00 | 6.72 nM | 0.254 nM | 0.629 nM | 6.25 | –
10 | Nc1ncc(-c2cc(-c3ccc(S(=O)(=O)N[C@@H]4CCNC4)c(S(N)(=O)=O)c3-c3nnn[nH]3)ccn2)[nH]1 [Example 440, (R)-4-(2-(2-Amino-1H-imidazol-5-yl)pyridin-4-yl)-N^1-(pyrrolidin-3-yl)-3-(1H-tetrazol-5-yl)benzene-1,2-disulfonamide] | 1.563 µM | 0.7813 µM | 1.563 µM | 0.7813 | 2.00 | 3.96 nM | 0.333 nM | – | 1.563 | 0.571 nM
11 | C[C@H](N)Cc1nc2c(-c3ccc(S(N)(=O)=O)c(S(N)(=O)=O)c3-c3nn[nH]n3)cccc2[nH]1 [Example 442, (S)-4-(2-(2-aminopropyl)-1H-benzo[d]imidazol-4-yl)-3-(2H-tetrazol-5-yl)benzene-1,2-disulfonamide] | 3.125 µM | 1.563 µM | 1.563 µM | 1.563 | 0.50 | 1.33 nM | 0.431 nM | – | 0.7813 | 0.249 nM
